Experimental findings from patent US20230024438A1, “INHIBITORS OF HIF-2ALPHA” (ARCUS BIOSCIENCES, INC., priority 2019, published 2023) are described below.

In assay [1] the target is T1, Histidine tagged HIF-2α protein containing PAS-B domain (240-350) (Homo sapiens, UniProt Q99814).
T1 construct: Histidine tagged HIF-2α protein containing PAS-B domain (240-350) was prepared and purified in house; made in house
Description: HIF-2α Scintillation Proximity Assay (SPA). As to conditions: 50 nM HIF-2α protein, 25 nM radiolabeled tracer; read-out: HIF-2α Scintillation Proximity Assay. The format is binding. How it is done: Tritium labeled compound N-(3-chlorophenyl)-4-nitro-2,1,3-benzoxadiazol-5-amine was obtained from American Radiolabeled Chemicals Inc. and copper chelate PVT SPA beads were from PerkinElmer (Cat #RPNQ0095). Histidine tagged HIF-2α protein containing PAS-B domain (240-350) was prepared and purified in house.
Compounds solubilized in DMSO were dispensed into a white 384-well polystyrene non-binding flat clear bottom plate (Greiner Bio-One, Cat #781903) using an HP D300 dispenser. Ten microliters of HIS-tagged HIF-2α protein in buffer (25 mM Tris-HCl, pH 7.4, 150 mM NaCl, 0.15% BSA and 0.001% Tween 20) was added to the compound wells and allowed to incubate for 1 hour at room temperature. Ten microliters of SPA bead mix were added to the wells and incubated for an additional 45 minutes, followed by 10 ul of ^3H-tracer solution. Final assay conditions comprised 50 nM HIF-2α protein, 25 nM radiolabeled tracer and 3 ug beads per well with compounds in 2% DMSO. The plate was read using a MicroBeta Microplate Counter (PerkinElmer) for luminescence detection. The IC50 values of the test compounds were determined from compound dose response curves fitted using a standard four parameter fit equation and are reported in Table 1.
In general terms: SPA uses beads or plates that emit light when radiolabelled molecules are held near them.

In assay [2] the target is T2, HIF-2α (Homo sapiens, UniProt Q99814).
T2 construct: endogenous in cells; host or cells: 786-O cells (ATCC CRL-1932) stably carrying the Cignal Lenti HIF Luc Reporter
The assay can be described thus: HIF-2α Luciferase Reporter Assay. The format is cell-based. Conditions: HIF-Luc-786-0 cells, 20 hours incubation, luciferase activity; read-out: HIF-2α Luciferase Assay. The method, then: Stable cell lines were generated by transducing 786-O cells (ATCC, CRL-1932) with Cignal Lenti HIF Luc Reporter lentivirus (CLS-007L, Qiagen) according to the manufacturer's guidelines. In brief, 0.3×10^6 786-0 cells were transduced with lentivirus at a Multiplicity of Infection (MOI) of 25 for 24 hours. After transduction, cells were replenished with fresh RPMI 1640 Medium (Cat. No. 11875085, Thermo Fisher,) supplemented with 10% FBS (Cat. No. A3160502, Gibco), 2 mM GlutaMax (Cat. No. 35050-061, Invitrogen) and 100 units of penicillin and 100 μg of streptomycin/mL (Cat. No 15070063, Thermo Fisher) for another 24 hours. Antibiotic selection was performed in cell media containing 4 μg/mL of Puromycin. After 7 days of antibiotic selection, stable pools of surviving cells were expanded and used in a luciferase reporter assay.
On day one, 20 uL of HIF-Luc-786-0 cells in OptiMem (Cat. No. 31985088, Thermo Fisher) were seeded into each well of a 384 well white opaque plate (Corning 3570) and incubated at 37° C. and 5% CO2. Twenty microliters of 2× test compounds in OptiMem were added to cells after 4 hours of incubation. Final assay conditions comprised 20,000 cells per well in 1% DMSO with test compound concentrations ranging from 50 uM to 0 uM. After 20 hours incubation at 37° C. and 5% CO2, luciferase activity was determined using ONE-Glo Luciferase Assay Reagent (E6110, Promega) following the manufacture's recommended procedure. Briefly, 40 uL of ONE-Glo luciferase reagents were added to each well and luciferase signals were measured using an Envision 2102 Multilabel Reader. Percentage maximum activity in each test well was calculated based on DMSO (maximum activity) and no cell control wells (baseline activity). The IC50 values of the test compounds were determined from compound dose response curves fitted using a standard four parameter fit equation.
(In a reporter assay the amount or activity of a reporter protein is the signal.)

T2 sequence (Q99814 whole entry): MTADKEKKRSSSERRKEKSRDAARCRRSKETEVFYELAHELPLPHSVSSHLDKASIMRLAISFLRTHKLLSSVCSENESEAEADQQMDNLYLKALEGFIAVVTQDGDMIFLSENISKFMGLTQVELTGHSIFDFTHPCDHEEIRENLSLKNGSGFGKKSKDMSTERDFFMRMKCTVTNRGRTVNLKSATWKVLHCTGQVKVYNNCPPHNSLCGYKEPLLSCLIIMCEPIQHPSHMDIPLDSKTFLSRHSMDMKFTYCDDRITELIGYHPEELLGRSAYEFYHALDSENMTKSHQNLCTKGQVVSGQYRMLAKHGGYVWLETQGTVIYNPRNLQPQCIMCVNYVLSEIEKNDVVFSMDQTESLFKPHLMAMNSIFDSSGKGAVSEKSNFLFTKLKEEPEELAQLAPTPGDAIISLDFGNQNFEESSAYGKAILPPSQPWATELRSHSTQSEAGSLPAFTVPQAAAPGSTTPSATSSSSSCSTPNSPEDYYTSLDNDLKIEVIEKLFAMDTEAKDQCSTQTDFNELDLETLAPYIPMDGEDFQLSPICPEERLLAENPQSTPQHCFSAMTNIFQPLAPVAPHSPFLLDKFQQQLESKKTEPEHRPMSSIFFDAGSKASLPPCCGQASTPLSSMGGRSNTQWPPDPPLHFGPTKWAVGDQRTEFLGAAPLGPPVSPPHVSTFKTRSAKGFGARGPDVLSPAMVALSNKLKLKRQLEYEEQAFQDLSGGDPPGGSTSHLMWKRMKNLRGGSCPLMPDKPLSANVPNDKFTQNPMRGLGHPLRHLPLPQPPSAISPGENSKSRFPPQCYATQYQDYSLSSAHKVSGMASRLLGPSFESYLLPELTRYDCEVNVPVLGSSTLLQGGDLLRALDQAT
T1 sequence (Q99814 240-350): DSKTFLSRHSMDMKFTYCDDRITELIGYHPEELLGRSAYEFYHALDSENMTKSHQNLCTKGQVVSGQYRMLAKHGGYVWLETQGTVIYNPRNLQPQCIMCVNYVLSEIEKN

For `O=S(=O)(c1ccc(Oc2ccc(F)c(F)c2)c2cn[nH]c12)C(F)(F)F` [Example 37, 4-(3,4-Fifluorophenoxy)-7-(trifluoromethylsulfonyl)-1H-indazole], the IC50 in assay [1] and in assay [2] was 1 to 10 µM in each case. `O=S(=O)(c1ccc(Oc2cc(F)cc(F)c2)c2cn[nH]c12)C(F)(F)F` [Example 25, 4-(3,5-Difluorophenoxy)-7-trifluoromethanesulfonyl-1H-indazole]: the IC50 in assay [1] and in assay [2] was below 1 µM each time. Turning to `O=S(=O)(c1ccc(NCc2ccccc2)c2cn[nH]c12)C(F)(F)F` [Example 51, N-benzyl-7-(trifluoromethylsulfonyl)-1H-indazol-4-amine], the IC50 in assay [1] and in assay [2] was above 10 µM in each case. Regarding `O=S(=O)(c1ccc(Oc2ccccc2)c2cn[nH]c12)C(F)(F)F` [Example 16, 4-Phenoxy-7-(trifluoromethylsulfonyl)-1H-indazole], the IC50 is above 10 µM in assay [1] and 1 to 10 µM in assay [2]. On to `N#Cc1cc(F)cc(Nc2cc(Cl)cc3[nH]ncc23)c1` [Example 65, 3-[(6-Chloro-1H-indazol-4-yl)amino]-5-florobenzonitrile], for which, in assay [2], the IC50 is 1 to 10 µM. In the case of `N#Cc1cccc(Oc2ccc(S(=O)(=O)C(F)(F)F)c3[nH]ncc23)c1` [Example 42, 3-[[7-(Trifluoromethylsulfonyl)-1H-indazol-4-yl]oxy]benzonitrile], the values for the IC50 in assay [1] and in assay [2] were below 1 µM and 1 to 10 µM, respectively. On the same counts, the results for `N#Cc1ccc(Oc2ccc(S(=O)(=O)C(F)(F)F)c3[nH]ncc23)cc1F` [Example 34, 2-Fluoro-4-[[7-(trifluoromethylsulfonyl)-1H-indazol-4-yl]oxy]benzonitrile] are above 10 µM and above 10 µM. `CS(=O)(=O)c1ccc(Oc2ccc(F)cc2F)c2cn[nH]c12` [Example 4, 4-(2,4-Difluorophenoxy)-7-methanesulfonyl-1H-indazole]: the IC50 in assay [1] and in assay [2] was above 10 µM throughout. With `N#Cc1cncc(Oc2ccc(S(=O)(=O)C(F)(F)F)c3[nH]ncc23)c1` [Example 24, 5-[(7-Trifluoromethanesulfonyl-1H-indazol-4-yl)oxy]pyridine-3-carbonitrile], the IC50 in assay [1] and in assay [2] was 1 to 10 µM each time. On to `N#Cc1cc(F)cc(Nc2ccc(C(F)(F)F)c3[nH]ncc23)c1` [Example 14, 3-Fluoro-5-[7-(trifluoromethyl)-1H-indazol-4-ylamino]benzonitrile], for which the IC50 in assay [1] and in assay [2] was 1 to 10 µM each time. On to `CS(=O)(=O)c1ccc(Oc2cc(F)cc(C#N)c2)c2c(CO)n[nH]c12` [Example 11, 3-Fluoro-5-{[3-(hydroxymethyl)-7-methanesulfonyl-1H-indazol-4-yl]oxy}benzonitrile], for which the IC50 in assay [1] is above 10 µM; in assay [2] it was 1 to 10 µM. The like results for `O=S(=O)(c1ccc(Oc2cccc(Cl)c2)c2cn[nH]c12)C(F)(F)F` [Example 41, 4-(3-Chlorophenoxy)-7-(trifluoromethylsulfonyl)-1H-indazole] were, in that order, below 1 µM and 1 to 10 µM. Turning to `CS(=O)(=O)c1ccc(Oc2ccc(Cl)c(Cl)c2)c2cn[nH]c12` [Example 6, 4-(3,4-Dichlorophenoxy)-7-methanesulfonyl-1H-indazole], the IC50 in assay [2] lay within 1 to 10 µM. In the case of `N#Cc1cc(Nc2ccc(S(=O)(=O)C(F)(F)F)c3[nH]ncc23)ccc1F` [Example 48, 2-Fluoro-5-[7-(trifluoromethylsulfonyl)-1H-indazol-4-ylamino]benzonitrile], the IC50 in assay [1] and in assay [2] was above 10 µM throughout. For the compound `O=S(=O)(c1ccc(Oc2cncc(Cl)c2)c2cn[nH]c12)C(F)(F)F` [Example 23, 4-[(5-Chloropyridin-3-yl)oxy]-7-trifluoromethanesulfonyl-1H-indazole], the IC50 in assay [1] and in assay [2] was 1 to 10 µM each time. For `O=S(=O)(c1ccc(Oc2cccc(F)c2)c2cn[nH]c12)C(F)(F)F` [Example 31, 4-(3-Fluorophenoxy)-7-(trifluoromethylsulfonyl)-1H-indazole], the IC50 in assay [1] and in assay [2] was 1 to 10 µM each time. In the case of `O=S(=O)(c1ccc(Oc2cc(F)c(F)c(F)c2)c2cn[nH]c12)C(F)(F)F` [Example 30, 7-(Trifluoromethylsulfonyl)-4-(3,4,5-trifluorophenoxy)-1H-indazole], the IC50 in assay [1] is 1 to 10 µM; in assay [2] it was above 10 µM. The like results for `N#Cc1cc(Cl)cc(Oc2ccc(S(=O)(=O)C(F)(F)F)c3[nH]ncc23)c1` [Example 27, 3-Chloro-5-[[7-(trifluoromethylsulfonyl)-1H-indazol-4-yl]oxy]benzonitrile] were, in that order, below 1 µM and 1 to 10 µM.

Take `O=S(=O)(c1ccc(NCc2ccc(F)cc2)c2cn[nH]c12)C(F)(F)F` [Example 52, N-[(4-fluorophenyl)methyl]-7-(trifluoromethylsulfonyl)-1H-indazol-4-amine]: the IC50 in assay [1] and in assay [2] was above 10 µM each time.

Turning to `CS(=O)(=O)c1ccc(Oc2cc(F)cc(C#N)c2)c2c(Cl)n[nH]c12` [Example 8, 3-[(3-Chloro-7-methanesulfonyl-1H-indazol-4-yl)oxy]-5-fluorobenzonitrile], the IC50 in assay [1] is above 10 µM; in assay [2], 1 to 10 µM.

Consider `N#Cc1cccc(Oc2ccc(S(=O)(=O)C(F)(F)F)c3[nH]nc(Cl)c23)c1` [Example 62, m-[3-Chloro-7-(trifluoromethylsulfonyl)-1H-indazol-4-yloxy]benzonitrile], for which the IC50 in assay [1] was below 1 µM; in assay [2], above 10 µM. Turning to `N#Cc1cc(F)cc(Nc2cncc3[nH]ncc23)c1` [Example 66, 3-Fluoro-5-({1H-pyrazolo[3,4-c]pyridin-4-yl}amino)benzonitrile], in assay [2], the IC50 is 1 to 10 µM. Same read-out and setting: under `O=S(=O)(c1ccc(N2CCCc3cc(F)cc(F)c32)c2cn[nH]c12)C(F)(F)F` [Example 49, 6,8-Difluoro-1-(7-trifluoromethanesulfonyl-1H-indazol-4-yl)-1,2,3,4-tetrahydroquinoline] stands above 10 µM. Turning to `N#Cc1cc(C#N)cc(Oc2ccc(S(=O)(=O)C(F)(F)F)c3[nH]ncc23)c1` [Example 22, 5-[(7-Trifluoromethanesulfonyl-1H-indazol-4-yl)oxy]benzene-1,3-dicarbonitrile], the IC50 in assay [1] was in the range of 1 to 10 µM. For the compound `CS(=O)(=O)c1ccc(Oc2cccc(Cl)c2)c2cn[nH]c12` [Example 5, 4-(3-Chlorophenoxy)-7-methanesulfonyl-1H-indazole], the IC50 in assay [2] was 1 to 10 µM. Same read-out and setting: for `CS(=O)(=O)c1ccc(Oc2cc(F)cc(C#N)c2)c2cn[nH]c12` [Example 3, 3-Fluoro-5-[(7-methanesulfonyl-1H-indazol-4-yl)oxy]benzonitrile] the value was above 10 µM; for `N#Cc1ccc(F)c(Oc2ccc(S(=O)(=O)C(F)(F)F)c3[nH]ncc23)c1` [Example 44, 4-Fluoro-3-[(7-trifluoromethanesulfonyl-1H-indazol-4-yl)oxy]benzonitrile], above 10 µM; for `N#Cc1cc(F)cc(Nc2ncnc3[nH]ncc23)c1` [Example 67, 3-Fluoro-5-({1H-pyrazolo[3,4-d]pyrimidin-4-yl}amino)benzonitrile], 1 to 10 µM. Still for that read-out and setting: for `CS(=O)(=O)c1ccc(Nc2cc(F)cc(C#N)c2)c2cn[nH]c12` [Example 1, 3-Fluoro-5-[(7-methanesulfonyl-1H-indazol-4-yl)amino]benzonitrile] the value was 1 to 10 µM; for `N#Cc1ccc(Cl)c(Oc2ccc(S(=O)(=O)C(F)(F)F)c3[nH]ncc23)c1` [Example 43, 4-Chloro-3-[(7-trifluoromethanesulfonyl-1H-indazol-4-yl)oxy]benzonitrile], 1 to 10 µM.
